Test results from patent US20090298894A1, “AMINO ACID COMPOUNDS” (Asahi Kasei Pharma Corporation, priority 2008, published 2009).

Columns and labels:
[1] = rats, intravenous administration, Non-Patent Document 2; cited from earlier work
[2] = tested on: rat having arthritis caused by an adjuvant; experiment: Animal model having arthritis caused by an adjuvant; assay type: in vivo; details: female Lewis rat, oral once a day, twenty-one days after the administration
Protocol: Animal Model Having Arthritis Caused by an Adjuvant
Seven-week old female Lewis rat is used for the evaluation. After measuring the volume of the hind leg of the rat, M. tuberculosis H37 RA (manufactured by Difco, 500 μg/100 μl) which has been suspended in fluid paraffin as an adjuvant, is subcutaneously injected in the sole of rear left foot of the rat to prepare a rat having arthritis caused by an adjuvant. The compounds to be tested are suspended in 1% methyl cellulose solution, and force the animal to be orally administered with the suspension into the stomach by using a sonde, once a day for twenty-one days from the start of the adjuvant injection. Evaluation of arthritis is carried out by measuring volume of the foot of each animal by using a plethysmometer (manufactured by UGO BASILE). By comparing the value for the group administered with the compounds of the present invention with the solvent administered group, effect of the compounds is determined. Specifically, the swelling of the sole of the rear left foot of the solvent administered group is taken as 100%, and in view of the swelling of the animals of the compound administered group, control % values are calculated. […]

| Structure (SMILES) | effect on heart rate [1] | ED50 (dosage required to reduce the swelling of sole of the rear left foot by 50%) [2] |
| --- | --- | --- |
| CCCCCCCCCCCCC/C=C/[C@@H](O)[C@@H](N)COP(=O)(O)O [sphingosine 1-phosphate] | decreases the heart rate |  |
| Cc1cc(-c2nc(-c3ccc4c(c3)CCC4N[C@H]3C[C@H](C(=O)O)C3)no2)ccc1-c1ccccc1.Cl (stereo partly drawn) [Example 1, 1,3-Trans-3-(5-(5-(2-methylbiphenyl-4-yl)-1,2,4-oxadiazol-3-yl)-2,3-dihydro-1H-inden-1-ylamino)cyclobutanecarboxylic acid hydrochloride salt] |  | less than 1 mg/kg |
